# Read-outs that look alike come from different tables or passages of the source.
# Assays:
# [1] = system: sugarcane stem sections; settings: for Avg. Germ / Avg. Height: evaluated seven days after planting
# Procedure: Sugarcane stem sections having a diameter of approximately […] and a length of approximately 50 mm were generated (e.g., cut) from sugarcane stalks. One set of cut sugarcane stem section were dipped into the coating compositions for a dwell time of about 60 seconds, and subsequently allowed to dry at room temperature (i.e., about 30° C. Another set of control sugarcane stem sections were not coated and remained at room temperature (i.e., about 30° C.) (i.e., identified below as “No AgNO3”). The coated and control uncoated sugarcane stem sections were then planted as is (i.e., these stem sections are identified below as “Day Zero”) or stored for a period of time up to three weeks in an air tight jar at room temperature (i.e., about 30° C.). Following storage, the coated and control uncoated sugarcane stem sections were then germinated in biochamber boxes. All coated and control uncoated sugarcane stem sections were germinated in a growth chamber and evaluated seven days after planting.
# [2] = system: sugarcane stem sections of CP88-1762
# Description: Sugarcane stem sections of CP88-1762 having a diameter of approximately 25-30 mm and a length or approximately 50 mm were coated with a standard treatment slurry (designated control treatment) or treated with the standard treatment slurry which also contained AgNO3 at a concentration of 600 μMol of AgNO3 (designated as AgNO3 treatment). The AgNO3 treated and control sugarcane stem sections were then planted as is or stored for a period of time up to three weeks in storage containers as shown in FIG. 1 (i.e., storage containers that allow gas transfer between an interior and an exterior of the storage container) at storage temperatures ranging from 10° C. to 22° C. Following storage, the AgNO3 treated and control sugarcane stem sections were planted in trays of potting soil and placed in a greenhouse. The trays were watered daily to maintain moisture and the greenhouse maintained at 26/20 C maximum/minimum temperatures with 15 hours light. Growth and germination of all AgNO3 treated and control sugarcane stem sections were evaluated at 7, 14, and 21 days after removal from storage containers.
# [3] = system: sugarcane stem sections of CP88-762; settings: 14 days after planting
# Description: Sugarcane stem sections of CP88-762 having a diameter of approximately 25-30 mm and a length of approximately 50 mm were cut and treated with a standard treatment slurry or a standard treatment slurry containing AgNO3 at a final concentration of 600 μMol of AgNO3 as described in Example 3. The AgNO3 treated and control (without AgNO3) sugarcane stem sections were then planted as is or stored for an extended period of time up to 42 days in storage containers as shown at FIG. 1 (i.e., storage containers that allow gas transfer between an interior and so exterior of the storage container) at a storage temperature of 10° C. Following storage, the AgNO3 treated and control sugarcane stem sections were planted in trays of potting soil and placed in a greenhouse as described in example 3. All sugarcane stem sections were evaluated for germination and shoot growth at 14 days after planting.
# [4] = system: sugarcane stem sections; settings: 300, 600 and 1200 μMol AgNO3; storage up to three weeks in air-tight jars at 16° C.; biochamber boxes or potted soil trays; FIGS. 2-7
# Description: Sugarcane stem sections (i.e., two varieties: CP 88-1762 and CP00-1101) having a diameter of approximately 25-30 mm and a length of approximately 50 mm were cut and coated (or left uncoated) as described in Example 1 using coating compositions having AgNO3 concentrations of 0, 300, 600 and 1200 μMol of AgNO3. The coated and control uncoated sugarcane stem sections were then planted as is or stored for a period of time up to three weeks in one gallon air-tight jars (i.e., about 20 coated sugarcane stem sections per jar) at 16° C. Following storage, the coated and control uncoated sugarcane stem sections were then germinated in either biochamber boxes or potted soil trays (i.e., 5 jars each) or both. All coated and control uncoated sugarcane stem sections were planted and evaluated as follows: germination rates were taken in the biochamber boxes at 3, 5, and 7 days after removal from the jars: germination rates were taken in the potted trays at 10, 12, and 14 days after removal from the jars.
# [5] = 200 μMol AgNO3, 2 weeks storage in air tight jar at about 30° C.
# [6] = 200 μMol AgNO3, 3 weeks storage in air tight jar at about 30° C.
# [7] = 400 μMol AgNO3, 2 weeks storage in air tight jar at about 30° C.
# [8] = 400 μMol AgNO3, 3 weeks storage in air tight jar at about 30° C.
# [9] = 600 μMol AgNO3, 2 weeks storage in air tight jar at about 30° C.
# [10] = 600 μMol AgNO3, 3 weeks storage in air tight jar at about 30° C.
# [11] = after a weeks of storage in an air-tight jar (3 weeks rows of Table 1)
# [12] = 600 μMol AgNO3 in standard treatment slurry, storage up to three weeks at 10° C. to 22° C. in gas-permeable containers, FIGS. 8-9
structure (smiles),measurement,setting,value
"O=[N+]([O-])[O-].[Ag+] [AgNO3, silver nitrate]","germination compared to the control ""no AgNO3"" sample","[1]; 200 μmol concentration, 2 weeks of storage in an air-tight jar",increased germination
same,Avg. Germ,[1]; [5],83.33%
same,Avg. Height,[1]; [5],51.38 mm
same,Avg. Germ,[1]; [6],52.50%
same,Avg. Height,[1]; [6],42.91 mm
same,Avg. Germ,[1]; [7],52.38%
same,Avg. Height,[1]; [7],39.66 mm
same,Avg. Germ,[1]; [8],45.00%
same,Avg. Height,[1]; [8],30.53 mm
same,Avg. Germ,[1]; [9],61.90%
same,Avg. Height,[1]; [9],40.79 mm
same,Avg. Germ,[1]; [10],87.50%
same,Avg. Height,[1]; [10],55.19 mm
same,"germination over the control ""non-AgNO3"" samples",[1]; [11],improved germination
same,"plant height over the control ""non-AgNO3"" samples",[1]; [11],improved
same,stem section germination,"[2]; 600 μMol AgNO3, 7 through 21 days storage",significant enhancement
same,shoot lengths,"[2]; 600 μMol AgNO3, all storage periods including day 0 planting",significant enhancement
same,vitality of sugarcane plants compared to plants from control stem sections,"[2]; 600 μMol AgNO3, stored for 14 days at 22° C., 28 days after planting, FIG. 10",much more vitality
same,germination rates compared to control sugarcane stem sections,[2]; [12],improved germination rates
same,plant vitality (as measured by plant height) compared to control sugarcane stem sections,[2]; [12],improved
same,germination rate,"[3]; 600 μMol AgNO3, after 6 weeks storage at 10° C., FIG. 11",68%
same,germination rates compared to control sugarcane stem sections,"[3]; 600 μMol AgNO3 in standard treatment slurry, throughout the 42 days of storage at 10° C., FIG. 11",improved germination rates
same,plant vitality (as measured by plant height) compared to control sugarcane stem sections,"[3]; 600 μMol AgNO3 in standard treatment slurry, throughout the 42 days of storage at 10° C., FIG. 12",improved
same,germination rates compared to the standard slurry applied sugarcane stem sections,[4],improved germination rates

# Source: patent publication US20170164607A1, “METHODS OF EXTENDING THE SHELF LIFE OF SUGARCANE STEM SECTIONS AND COATED SUGARCANE STEM SECTIONS” (Syngenta Participations AG, priority 2014, published 2017)
